From patent US10293026B2, “Agent for preventing or treating demyelinating disease” (Osaka University, priority 2014, dated 2019)

B1: FGF23: Recombinant FGF23 (R&D), comparison FGF subtype (protein, UniProt Q9GZV9 25-251, looked up)
Fibroblast growth factor 23: YPNASPLLGSSWGGLIHLYTATARNSYHLQIHKNGHVDGAPHQTIYSALMIRSEDAGFVVITGVMSRRYLCMDFRGNIFGSHYFDPENCRFQHQTLENGYDVYHSPQYHFLVSLGRAKRAFLPGMNPPPYSQFLSRRNEIPLIHFNTPIPRRHTRSAEDDSERDPLNVLKPRARMTPAPASCSQELPSAEDNSPMASDPLGVVRGGRVNTHAGGTGPEGCRPFAKFI
B2: FGF15: Recombinant FGF15 (Abcam), comparison FGF subtype (protein, UniProt O35622 26-218, looked up)
Fibroblast growth factor 15: RPLAQQSQSVSDEDPLFLYGWGKITRLQYLYSAGPYVSNCFLRIRSDGSVDCEEDQNERNLLEFRAVALKTIAIKDVSSVRYLCMSADGKIYGLIRYSEEDCTFREEMDCLGYNQYRSMKHHLHIIFIQAKPREQLQDQKPSNFIPVFHRSFFETGDQLRSKMFSLPLESDSMDPFRMVEDVDHLVKSPSFQK

Tests used:
[1] = tested on: oligodendrocyte precursor cells; test: BrdU uptake by oligodendrocyte precursor cells with culture supernatant of cardiomyocytes and FGFR inhibitors (Example 1); format: cell-based, C57BL/6j mice; conditions: SU5402 at 10, 30, 100 μM or PD173074 at 0.03, 0.1, 0.3, 1 μM added with supernatant; FIG. 1
Description: Hearts extracted from C57BL/6j mice (postnatal day 1-old) were minced, and then poured into 1 mg/ml of Type 1 collagenase (Worthington) and shaken at 37° C. for 20 minutes. The obtained cell suspension was pipetted and allowed to stand, and then the supernatant was collected. Remaining cardiomyocytes after the collection of the supernatant were again poured into 1 mg/ml of Type 1 collagenase (Worthington) and shaken at 37° C. for 20 minutes, and then the supernatant was collected. This operation was repeated three times. The collected supernatant was suspended in MEM ([…]) containing 5% calf serum, and the cell suspension was poured into a culture dish. After 30 minutes, suspension cells were collected, and were resuspended in MEM containing 5% calf serum and then centrifuged (2000 rpm, 6 minutes). […]
The harvested oligodendrocyte precursor cells were seeded in a poly-L-lysine (Sigma)-coated plastic tissue culture dish, and cultured in a medium for 1 day (37° C., 5% CO2). […] Bromodeoxyuridine (BrdU) was subsequently added and cultured at 37° C. for 24 hours, and then the cells were collected; the BrdU uptake was then detected using the cell proliferation ELISA, BrdU colorimetric kit (Roche). As a control, the BrdU uptake was measured under the same conditions as those described above, except that the culture supernatant of cardiomyocytes was not added. […]

[2] = tested on: oligodendrocyte precursor cells; test: BrdU uptake by oligodendrocyte precursor cells with recombinant FGFs (Example 3); format: cell-based, C57BL/6j mice; conditions: FGF at 10, 30 or 100 ng/ml, vs saline control; FIG. 3
Description: Recombinant FGF15 (Abcam), FGF21 (R&D), or FGF23 (R&D) was diluted in saline solution immediately before use to prepare an each FGF-containing solution. Oligodendrocyte precursor cells were harvested from C57BL/6j mice (postnatal day 1-old) brains, as in Example 1.
Initially, the oligodendrocyte precursor cells were seeded in a poly-L-lysinde (Sigma)-coated plastic tissue culture dish, and cultured in the following medium for 1 day (37° C., 5% CO2). The medium used was DMEM containing 4 mM L-gludamine (Sigma), 1 mM sodium pyruvate (Sigma), 0.1% bovine serum albumin (Sigma), 50 μg/ml apo-Transferrin (Sigma), 5 μg/ml insulin (Sigma), 30 nM sodium selenite (Sigma), 10 nM biotin (Sigma), 10 nM hydrocortisone (Sigma), 10 ng/ml Platelet-Derived Growth Factor-AA (Peprotech), and 10 ng/ml basic fibroblast growth factor (Peprotech). Thereafter, each type of FGF-containing solution was added to the culture medium of oligodendrocyte precursor cells such that the concentration of each type of FGF was 10 ng/ml, 30 ng/ml, or 100 ng/ml, and the cells were cultured at 37° C. for 24 hours. BrdU was subsequently added and cultured at 37° C. for 24 hours, and then the cells were collected; the BrdU uptake was then detected using the cell proliferation ELISA, BrdU colorimetric kit (Roche). As a control, an equivalent amount of saline solution was used instead of the FGF21-containing solution, and the BrdU uptake was measured under the same conditions as those described above. This experiment studied three cases for each group.

| Molecule | increase in the BrdU uptake by culture supernatant of cardiomyocytes [1] | BrdU uptake by the oligodendrocyte precursor cells [2] |
| --- | --- | --- |
| CCN(CC)CCCCNc1ncc2cc(-c3cc(OC)cc(OC)c3)c(NC(=O)NC(C)(C)C)nc2n1 [PD173074] | suppressed | – |
| Cc1c[nH]c(/C=C2\C(=O)Nc3ccccc32)c1CCC(=O)O [SU5402] | suppressed | – |
| B1 | – | significant difference in the amounts of BrdU uptake was not observed |
| B2 | – | significant difference in the amounts of BrdU uptake was not observed |
